Measurements as given in BindingDB's records for doi:10.1210/en.2002-221074 (National Institute of Diabetes and Digestive and Kidney …, 2003).

How the values were obtained:
[1] = biological target: T1, Thyrotropin-releasing hormone receptor (Xenopus laevis, UniProt Q9DDR1)
T1 sequence (Q9DDR1 whole entry): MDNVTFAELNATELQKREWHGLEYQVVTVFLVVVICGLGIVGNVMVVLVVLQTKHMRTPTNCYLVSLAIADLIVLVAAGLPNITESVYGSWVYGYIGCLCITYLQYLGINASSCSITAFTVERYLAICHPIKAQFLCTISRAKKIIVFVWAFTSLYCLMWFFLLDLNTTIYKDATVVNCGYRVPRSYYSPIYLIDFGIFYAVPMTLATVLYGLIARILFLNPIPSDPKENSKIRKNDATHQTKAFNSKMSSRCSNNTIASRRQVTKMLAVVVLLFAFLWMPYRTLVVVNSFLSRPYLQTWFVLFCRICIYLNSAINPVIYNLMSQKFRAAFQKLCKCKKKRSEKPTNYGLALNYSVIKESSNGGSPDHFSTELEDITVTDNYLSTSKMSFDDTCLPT

[2] = biological target: T2, Pro-thyrotropin-releasing hormone-B (Xenopus sp., UniProt Q00643)
T2 sequence (Q00643 whole entry): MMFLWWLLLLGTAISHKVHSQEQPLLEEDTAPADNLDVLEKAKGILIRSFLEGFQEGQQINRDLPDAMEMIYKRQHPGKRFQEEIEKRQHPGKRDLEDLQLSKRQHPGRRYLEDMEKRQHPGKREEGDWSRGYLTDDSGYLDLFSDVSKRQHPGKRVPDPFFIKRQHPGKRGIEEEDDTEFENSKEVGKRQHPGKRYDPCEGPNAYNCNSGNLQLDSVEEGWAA

[3] = biological target: T3, Thyrotropin-releasing hormone receptor (Mus musculus, UniProt P21761)
T3 sequence (P21761 whole entry): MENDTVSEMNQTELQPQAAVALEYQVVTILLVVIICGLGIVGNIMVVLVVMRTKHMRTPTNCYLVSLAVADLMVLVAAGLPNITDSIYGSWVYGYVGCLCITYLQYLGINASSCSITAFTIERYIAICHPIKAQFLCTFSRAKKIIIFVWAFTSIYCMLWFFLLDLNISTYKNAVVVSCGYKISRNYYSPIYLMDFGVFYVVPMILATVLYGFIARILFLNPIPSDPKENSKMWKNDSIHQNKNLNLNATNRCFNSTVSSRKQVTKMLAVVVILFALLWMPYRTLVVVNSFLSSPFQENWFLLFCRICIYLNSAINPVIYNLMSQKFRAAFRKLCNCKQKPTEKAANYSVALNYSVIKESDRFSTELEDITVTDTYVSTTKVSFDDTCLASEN

| Structure (SMILES) | Ki [1] [µM] | Ki [2] [µM] | Ki [3] [µM] |
| --- | --- | --- | --- |
| NC(=O)C1CCCN1C(=O)C(Cc1cnc[nH]1)NC(=O)C1CCC(=O)C1 (stereo not given) [Desaza1TRH] | 3 | > 10 | – |
| NC(=O)C1CCCN1C(=O)C(Cc1cnc[nH]1)NC(=O)[C@@H]1CCC(=O)C1 (stereo not given in full) [Pyr3TRH] | > 10 | > 10 | > 10 |
